From patent EP0160578A1, “1,8-Naphthyridine derivatives” (DAIICHI SEIYAKU CO., LTD., priority 1984, dated 1985)
Converted amounts (≈) assume the structure as drawn.

Columns and labels:
Assay in all cases: Antibacterial activity, dilution method in Muller-Hinton Bouillon (MIC)
Format in all cases: cell-based
Pr. mirabilis, 1287 = conditions: Proteus mirabilis, 10^6/ml bacteria, 37°C, 18 hours, read-out: Minimal Inhibitory Concentration (MIC)
Method: (§1) The antibacterial activity of the compounds of the present invention was determined by the standard method of the Japan Society of Chemotherapy: according to the dilution method in Muller-Hinton Bouillon, 10^6/ml of bacteria were seeded and incubated at 37°C for 18 hours.

Pr. vulgaris, 3167 = conditions: Proteus vulgaris, 10^6/ml bacteria, 37°C, 18 hours, read-out: Minimal Inhibitory Concentration (MIC)
Method: as §1

Sh. flexneri, 2a5503 = conditions: Shigella flexneri, 10^6/ml bacteria, 37°C, 18 hours, read-out: Minimal Inhibitory Concentration (MIC)
Method: as §1

S. epidermis, 56556 = conditions: 10^6/ml bacteria, 37°C, 18 hours, read-out: Minimal Inhibitory Concentration (MIC)
Method: as §1

Ps. aeruginosa, 2131 = conditions: Pseudomonas aeruginosa, 10^6/ml bacteria, 37°C, 18 hours, read-out: Minimal Inhibitory Concentration (MIC)
Method: as §1

Ps. maltophilia, IID1275 = conditions: Stenotrophomonas maltophilia, 10^6/ml bacteria, 37°C, 18 hours, read-out: Minimal Inhibitory Concentration (MIC)
Method: as §1

Str. pyogenes, G-36 = conditions: Streptococcus pyogenes, G36, 10^6/ml bacteria, 37°C, 18 hours, read-out: Minimal Inhibitory Concentration (MIC)
Method: as §1

Ps. aeruginosa, 2128 = conditions: Pseudomonas aeruginosa, 10^6/ml bacteria, 37°C, 18 hours, read-out: Minimal Inhibitory Concentration (MIC)
Method: as §1

Ps. aeruginosa, 2063 = conditions: Pseudomonas aeruginosa, 10^6/ml bacteria, 37°C, 18 hours, read-out: Minimal Inhibitory Concentration (MIC)
Method: as §1

Ser. marcescens, 13001 = conditions: Serratia marcescens, 10^6/ml bacteria, 37°C, 18 hours, read-out: Minimal Inhibitory Concentration (MIC)
Method: as §1

Str. faecalis, ATCC19433 = conditions: Enterococcus faecalis, 10^6/ml bacteria, 37°C, 18 hours, read-out: Minimal Inhibitory Concentration (MIC)
Method: as §1

E. coli, NIHJ = conditions: Escherichia coli, 10^6/ml bacteria, 37°C, 18 hours, read-out: Minimal Inhibitory Concentration (MIC)
Method: as §1

Ps. cepacia, IID1340 = conditions: Burkholderia cepacia, 10^6/ml bacteria, 37°C, 18 hours, read-out: Minimal Inhibitory Concentration (MIC)
Method: as §1

S. aureus, Smith = conditions: Staphylococcus aureus, 10^6/ml bacteria, 37°C, 18 hours, read-out: Minimal Inhibitory Concentration (MIC)
Method: as §1

CCn1cc(C(=O)O)c(=O)c2cc(F)c(N3CCNCC3)nc21 [Control Compound, 1-ethyl-6-fluoro-7-(1-piperazinyl)-1,4-dihydro-4-oxo-1,8-naphthyridine-3-carboxylic acid, reference compound]
MIC (Pr. mirabilis, 1287): 0.2 µg/mL (≈ 0.624 µM)
MIC (Pr. vulgaris, 3167): 0.2 µg/mL (≈ 0.624 µM)
MIC (Sh. flexneri, 2a5503): 0.2 µg/mL (≈ 0.624 µM)
MIC (S. epidermis, 56556): 0.78 µg/mL (≈ 2.44 µM)
MIC (Ps. aeruginosa, 2131): 0.2 µg/mL (≈ 0.624 µM)
MIC (Ps. maltophilia, IID1275): 0.78 µg/mL (≈ 2.44 µM)
MIC (Str. pyogenes, G-36): 25 µg/mL (≈ 78 µM)
MIC (Ps. aeruginosa, 2128): 0.78 µg/mL (≈ 2.44 µM)
MIC (Ps. aeruginosa, 2063): 0.78 µg/mL (≈ 2.44 µM)
MIC (Ser. marcescens, 13001): 0.2 µg/mL (≈ 0.624 µM)
MIC (Str. faecalis, ATCC19433): 6.25 µg/mL (≈ 19.5 µM)
MIC (E. coli, NIHJ): 0.2 µg/mL (≈ 0.624 µM)
MIC (Ps. cepacia, IID1340): 50 µg/mL (≈ 156 µM)
MIC (S. aureus, Smith): 0.78 µg/mL (≈ 2.44 µM)

O=C(O)c1cn(C2CC2)c2nc(N3CCNCC3)c(F)cc2c1=O [No. 1, 1-cyclopropyl-6-fluoro-7-(1-piperazinyl)-1,4-dihydro-4-oxo-1,8-naphthyridine-3-carboxylic acid]
MIC (Pr. mirabilis, 1287): ≤ 0.05 µg/mL
MIC (Pr. vulgaris, 3167): ≤ 0.05 µg/mL
MIC (Sh. flexneri, 2a5503): ≤ 0.05 µg/mL
MIC (S. epidermis, 56556): 0.39 µg/mL (≈ 1.17 µM)
MIC (Ps. aeruginosa, 2131): 0.1 µg/mL (≈ 0.301 µM)
MIC (Ps. maltophilia, IID1275): 0.78 µg/mL (≈ 2.35 µM)
MIC (Str. pyogenes, G-36): 6.25 µg/mL (≈ 18.8 µM)
MIC (Ps. aeruginosa, 2128): 0.1 µg/mL (≈ 0.301 µM)
MIC (Ps. aeruginosa, 2063): 0.1 µg/mL (≈ 0.301 µM)
MIC (Ser. marcescens, 13001): ≤ 0.05 µg/mL
MIC (Str. faecalis, ATCC19433): 1.56 µg/mL (≈ 4.69 µM)
MIC (E. coli, NIHJ): ≤ 0.05 µg/mL
MIC (Ps. cepacia, IID1340): 3.13 µg/mL (≈ 9.42 µM)
MIC (S. aureus, Smith): 0.39 µg/mL (≈ 1.17 µM)

NC1CCN(c2nc3c(cc2F)c(=O)c(C(=O)O)cn3C2CC2)C1 (stereo not shown) [No. 2, 1-cyclopropyl-6-fluoro-7-(3-amino-1-pyrrolidinyl)-1,4-dihydro-4-oxo-1,8--naphthyridine-3-carboxylic acid]
MIC (Pr. mirabilis, 1287): ≤ 0.05 µg/mL
MIC (Pr. vulgaris, 3167): ≤ 0.05 µg/mL
MIC (Sh. flexneri, 2a5503): ≤ 0.05 µg/mL
MIC (S. epidermis, 56556): 0.1 µg/mL (≈ 0.301 µM)
MIC (Ps. aeruginosa, 2131): 0.1 µg/mL (≈ 0.301 µM)
MIC (Ps. maltophilia, IID1275): 0.39 µg/mL (≈ 1.17 µM)
MIC (Str. pyogenes, G-36): 0.78 µg/mL (≈ 2.35 µM)
MIC (Ps. aeruginosa, 2128): ≤ 0.05 µg/mL
MIC (Ps. aeruginosa, 2063): ≤ 0.05 µg/mL
MIC (Ser. marcescens, 13001): ≤ 0.05 µg/mL
MIC (Str. faecalis, ATCC19433): 0.39 µg/mL (≈ 1.17 µM)
MIC (E. coli, NIHJ): ≤ 0.05 µg/mL
MIC (Ps. cepacia, IID1340): 0.39 µg/mL (≈ 1.17 µM)
MIC (S. aureus, Smith): 0.1 µg/mL (≈ 0.301 µM)

O=C(O)c1cn(C2CC2)c2nc(N3CCC(O)C3)c(F)cc2c1=O (stereo not drawn) [No. 3, l-cyclopropyl-6-fluoro-7-(3-hydroxy-l-pyrrolidinyl)-1,4-dihydro-4-oxo-1,8-naphthyridine-3-carboxylic acid]
MIC (Pr. mirabilis, 1287): ≤ 0.05 µg/mL
MIC (Pr. vulgaris, 3167): ≤ 0.05 µg/mL
MIC (Sh. flexneri, 2a5503): ≤ 0.05 µg/mL
MIC (S. epidermis, 56556): 0.1 µg/mL (≈ 0.3 µM)
MIC (Ps. aeruginosa, 2131): 0.78 µg/mL (≈ 2.34 µM)
MIC (Ps. maltophilia, IID1275): 0.39 µg/mL (≈ 1.17 µM)
MIC (Str. pyogenes, G-36): 1.56 µg/mL (≈ 4.68 µM)
MIC (Ps. aeruginosa, 2128): 0.39 µg/mL (≈ 1.17 µM)
MIC (Ps. aeruginosa, 2063): 0.39 µg/mL (≈ 1.17 µM)
MIC (Ser. marcescens, 13001): 0.1 µg/mL (≈ 0.3 µM)
MIC (Str. faecalis, ATCC19433): 0.39 µg/mL (≈ 1.17 µM)
MIC (E. coli, NIHJ): ≤ 0.05 µg/mL
MIC (Ps. cepacia, IID1340): 0.39 µg/mL (≈ 1.17 µM)
MIC (S. aureus, Smith): ≤ 0.05 µg/mL

CN1CCN(c2nc3c(cc2F)c(=O)c(C(=O)O)cn3C2CC2)CC1 [No. 4, 1-cyclopropyl-6-fluoro-7-(4-methyl-1-piperazinyl)-1,4-dihydro-4-oxo-1,8-naphthyridine-3-carboxylic acid]
MIC (Pr. mirabilis, 1287): ≤ 0.05 µg/mL
MIC (Pr. vulgaris, 3167): ≤ 0.05 µg/mL
MIC (Sh. flexneri, 2a5503): ≤ 0.05 µg/mL
MIC (S. epidermis, 56556): 0.39 µg/mL (≈ 1.13 µM)
MIC (Ps. aeruginosa, 2131): 0.39 µg/mL (≈ 1.13 µM)
MIC (Ps. maltophilia, IID1275): 0.39 µg/mL (≈ 1.13 µM)
MIC (Str. pyogenes, G-36): 6.25 µg/mL (≈ 18 µM)
MIC (Ps. aeruginosa, 2128): 0.2 µg/mL (≈ 0.577 µM)
MIC (Ps. aeruginosa, 2063): 0.39 µg/mL (≈ 1.13 µM)
MIC (Ser. marcescens, 13001): ≤ 0.05 µg/mL
MIC (Str. faecalis, ATCC19433): 3.13 µg/mL (≈ 9.04 µM)
MIC (E. coli, NIHJ): ≤ 0.05 µg/mL
MIC (Ps. cepacia, IID1340): 1.56 µg/mL (≈ 4.5 µM)
MIC (S. aureus, Smith): 0.2 µg/mL (≈ 0.577 µM)

O=C(O)c1cn(C2CC2)c2nc(N3CCCNCC3)c(F)cc2c1=O [No. 5, 1-cyclopropyl-6-fluoro-7-(1-homopiperazinyl)-1,4-dihydro-4-oxo-1,8-naphthyridine-3-carboxylic acid]
MIC (Pr. mirabilis, 1287): 0.1 µg/mL (≈ 0.289 µM)
MIC (Pr. vulgaris, 3167): ≤ 0.05 µg/mL
MIC (Sh. flexneri, 2a5503): ≤ 0.05 µg/mL
MIC (S. epidermis, 56556): 0.39 µg/mL (≈ 1.13 µM)
MIC (Ps. aeruginosa, 2131): 0.2 µg/mL (≈ 0.577 µM)
MIC (Ps. maltophilia, IID1275): 1.56 µg/mL (≈ 4.5 µM)
MIC (Str. pyogenes, G-36): 12.5 µg/mL (≈ 36.1 µM)
MIC (Ps. aeruginosa, 2128): 0.1 µg/mL (≈ 0.289 µM)
MIC (Ps. aeruginosa, 2063): 0.2 µg/mL (≈ 0.577 µM)
MIC (Ser. marcescens, 13001): 0.1 µg/mL (≈ 0.289 µM)
MIC (Str. faecalis, ATCC19433): 6.25 µg/mL (≈ 18 µM)
MIC (E. coli, NIHJ): ≤ 0.05 µg/mL
MIC (Ps. cepacia, IID1340): 0.78 µg/mL (≈ 2.25 µM)
MIC (S. aureus, Smith): 0.39 µg/mL (≈ 1.13 µM)

CN1CCCN(c2nc3c(cc2F)c(=O)c(C(=O)O)cn3C2CC2)CC1 [No. 6, 1-cyclopropyl-6-fluoro-7-(N-methyl-1-homopiperazinyl)-1,4-dihydro-4-oxo-1,8-naphthyridine-3-carboxylic acid]
MIC (Pr. mirabilis, 1287): 0.2 µg/mL (≈ 0.555 µM)
MIC (Pr. vulgaris, 3167): 0.1 µg/mL (≈ 0.277 µM)
MIC (Sh. flexneri, 2a5503): 0.1 µg/mL (≈ 0.277 µM)
MIC (S. epidermis, 56556): 0.39 µg/mL (≈ 1.08 µM)
MIC (Ps. aeruginosa, 2131): 0.78 µg/mL (≈ 2.16 µM)
MIC (Ps. maltophilia, IID1275): 0.39 µg/mL (≈ 1.08 µM)
MIC (Str. pyogenes, G-36): 6.25 µg/mL (≈ 17.3 µM)
MIC (Ps. aeruginosa, 2128): 0.39 µg/mL (≈ 1.08 µM)
MIC (Ps. aeruginosa, 2063): 0.78 µg/mL (≈ 2.16 µM)
MIC (Ser. marcescens, 13001): 0.2 µg/mL (≈ 0.555 µM)
MIC (Str. faecalis, ATCC19433): 6.25 µg/mL (≈ 17.3 µM)
MIC (E. coli, NIHJ): ≤ 0.05 µg/mL
MIC (Ps. cepacia, IID1340): 0.78 µg/mL (≈ 2.16 µM)
MIC (S. aureus, Smith): 0.39 µg/mL (≈ 1.08 µM)

CC1CN(c2nc3c(cc2F)c(=O)c(C(=O)O)cn3C2CC2)CCN1 (stereo not shown) [No. 7, 1-cyclopropyl-6-fluoro-7-(3-methyl-1-piperazinyl)-1,4-dihydro-4-oxo-1,8--naphthyridine-3-carboxylic acid]
MIC (Pr. mirabilis, 1287): 0.1 µg/mL (≈ 0.289 µM)
MIC (Pr. vulgaris, 3167): ≤ 0.05 µg/mL
MIC (Sh. flexneri, 2a5503): ≤ 0.05 µg/mL
MIC (S. epidermis, 56556): 0.78 µg/mL (≈ 2.25 µM)
MIC (Ps. aeruginosa, 2131): 0.1 µg/mL (≈ 0.289 µM)
MIC (Ps. maltophilia, IID1275): 0.39 µg/mL (≈ 1.13 µM)
MIC (Str. pyogenes, G-36): 1.56 µg/mL (≈ 4.5 µM)
MIC (Ps. aeruginosa, 2128): 0.2 µg/mL (≈ 0.577 µM)
MIC (Ps. aeruginosa, 2063): 0.2 µg/mL (≈ 0.577 µM)
MIC (Ser. marcescens, 13001): ≤ 0.05 µg/mL
MIC (Str. faecalis, ATCC19433): 3.13 µg/mL (≈ 9.04 µM)
MIC (E. coli, NIHJ): ≤ 0.05 µg/mL
MIC (Ps. cepacia, IID1340): 0.39 µg/mL (≈ 1.13 µM)
MIC (S. aureus, Smith): 0.39 µg/mL (≈ 1.13 µM)
